Results from US8629102B2, “3-hydroxyisothiazole 1-oxide derivatives” (Mochida Pharmaceutical Co., Ltd., priority 2011, dated 2014).

Each compound was assayed against T1, GPR40 of human origin (Homo sapiens, UniProt O14842) (assay: Agonist action on GPR40 of human origin (intracellular Ca2+ change)). Details: CHO cell strain stably expressing GPR40 of human origin; change in Ca2+ concentration, fluorescent calcium indicator.
T1 construct: expressed in transfected cells
T1 sequence (O14842 whole entry): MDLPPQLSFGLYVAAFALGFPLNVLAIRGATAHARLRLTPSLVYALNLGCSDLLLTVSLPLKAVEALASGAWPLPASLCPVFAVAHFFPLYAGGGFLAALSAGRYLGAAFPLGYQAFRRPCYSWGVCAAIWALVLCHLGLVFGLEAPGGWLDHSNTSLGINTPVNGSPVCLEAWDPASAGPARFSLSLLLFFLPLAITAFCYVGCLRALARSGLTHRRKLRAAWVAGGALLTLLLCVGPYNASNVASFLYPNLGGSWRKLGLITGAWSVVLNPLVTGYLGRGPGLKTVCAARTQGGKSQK
Format: cell-based
Experimental: Pharmacological Test Example 1: Agonist Action on GPR40 of Human Origin
A CHO cell strain stably expressing GPR40 of human origin was used to determine the agonist action of a subject compound. This cell strain was seeded in a clear bottom 96 well plate at 4×10^4 cells/100 pt/well. The cell strain iswas cultured in a CO2 incubator overnight using a Ham's F-12 medium containing a 10% fetal bovine serum, 100 U/mL penicillin, 0.1 mg/mL streptomycin, and 400 μg/mL Geneticin. Calcium 4 Assay Kit (Molecular Devices) was used as a fluorescent calcium indicator. One mL of 77 mg/mL probenecid (Invitrogen) was added to 100 mL of a calcium indicator solution to prepare a solution (loading solution) mixed with a 20 mM HEPES-containing Hanks' balanced salt solution (HBSS) in equal proportions. To the cells from which the culture solution is removed, 200 μl of the loading solution was added, and the cells were cultured in a CO2 incubator for 1 hour. The subject compound was diluted with a 20 mM HEPES-containing HBSS and was added to the cells by 50 μL, and the change in the Ca^2+ concentration was measured with an intracellular ion analyzer. The EC50 value of the subject compound was calculated using the dose-response curve of fluorescence intensity variation.
`[O-][s+]1nc(O)cc1-c1ccc(O[C@@H]2CCc3c(Br)cccc32)cc1` (single isomer, unassigned) [Example 3] gave an EC50 of less than 300 nM. `Cc1ccc(Cl)c(-c2cccc3c2CC[C@H]3Oc2ccc(-c3cc(O)n[s+]3[O-])cc2)c1` (single isomer, unassigned) [Example 15] showed an EC50 of less than 300 nM. With `CC(C)c1ccc(-c2cccc3c2CC[C@H]3Oc2ccc(-c3cc(O)n[s+]3[O-])cc2)cc1` (single isomer, unassigned) [Example 26] the EC50 was 300 to 3000 nM. For `[O-][s+]1nc(O)cc1-c1ccc(O[C@@H]2CCc3c(-c4cccc5ccccc45)cccc32)cc1` (single isomer, unassigned) [Example 35], the EC50 was less than 300 nM. In the case of `[O-][s+]1nc(O)cc1-c1ccc(O[C@@H]2CCc3c(-c4cccnc4Cl)cccc32)cc1` (single isomer, unassigned) [Example 75], the EC50 is reported as less than 300 nM. `[O-][s+]1nc(O)cc1-c1ccc(O[C@@H]2CCc3c(-c4cccc5c4oc4ccccc45)cccc32)cc1` (single isomer, unassigned) [Example 80] gave an EC50 of less than 300 nM. In the case of `N#Cc1ccc(Oc2cccc3c2CC[C@H]3Oc2ccc(-c3cc(O)n[s+]3[O-])cc2)cc1` (single isomer, unassigned) [Example 83], the EC50 is reported as less than 300 nM. `[O-][s+]1nc(O)cc1-c1ccc(O[C@@H]2CCc3c(Oc4cccnc4)cccc32)cc1` (single isomer, unassigned) [Example 85] showed an EC50 of less than 300 nM. With `N#Cc1ccc(Oc2cccc3c2OCC3Oc2ccc(-c3cc(O)n[s+]3[O-])cc2)cc1` (single isomer, unassigned) [Example 144-a, 4-((3-(4-(3-hydroxy-1-oxidoisothiazol-5-yl)phenoxy)-2,3-dihydrobenzofuran-7-yl)oxy)benzonitrile] the EC50 was less than 300 nM. Work on `N#Cc1ccc(Oc2cccc3c2OCC3Oc2ccc(-c3cc(O)n[s+]3[O-])cc2)cc1` (single isomer, unassigned) [Example 144-b, 4-((3-(4-(3-hydroxy-1-oxidoisothiazol-5-yl)phenoxy)-2,3-dihydrobenzofuran-7-yl)oxy)benzonitrile] yielded an EC50 of 300 to 3000 nM. With `[O-][s+]1nc(O)cc1-c1ccc(OC2COc3c(Oc4ccccc4)cccc32)cc1` (single isomer, unassigned) [Example 145-a, 3-hydroxy-5-(4-((7-phenoxy-2,3-dihydrobenzofuran-3-yl)oxy)phenyl)isothiazole 1-oxide] the EC50 was less than 300 nM. `[O-][s+]1nc(O)cc1-c1ccc(OC2COc3c(Oc4ccccc4)cccc32)cc1` (single isomer, unassigned) [Example 145-b, 3-hydroxy-5-(4-((7-phenoxy-2,3-dihydrobenzofuran-3-yl)oxy)phenyl)isothiazole 1-oxide] gave an EC50 of 300 to 3000 nM. `Cc1cc(OCCC(C)(C)O)cc(C)c1-c1cccc2c1OCC2Oc1ccc(-c2cc(O)n[s+]2[O-])cc1` (single isomer, unassigned) [Example 148-a, 3-hydroxy-5-(4-((7-(4-(3-hydroxy-3-methylbutoxy)-2,6-dimethylphenyl)-2,3-dihydrobenzofuran-3-yl)oxy)phenyl)isothiazole 1-oxide] showed an EC50 of less than 300 nM. `Cc1cc(OCCC(C)(C)O)cc(C)c1-c1cccc2c1OCC2Oc1ccc(-c2cc(O)n[s+]2[O-])cc1` (single isomer, unassigned) [Example 148-b, 3-hydroxy-5-(4-((7-(4-(3-hydroxy-3-methylbutoxy)-2,6-dimethylphenyl)-2,3-dihydrobenzofuran-3-yl)oxy)phenyl)isothiazole 1-oxide] was tested, and the EC50 was 300 to 3000 nM. `[O-][s+]1nc(O)cc1-c1ccc(OC2COc3c(Br)cccc32)cc1` (single isomer, unassigned) [Example 150, 5-(4-((7-bromo-2,3-dihydrobenzofuran-3-yl)oxy)phenyl)-3-hydroxyisothiazole 1-oxide] showed an EC50 of less than 300 nM. For `Cc1cc(OCCCS(C)(=O)=O)cc(C)c1-c1cccc2c1OCC2Oc1ccc(-c2cc(O)n[s+]2[O-])cc1` (single isomer, unassigned) [Example 151, 5-(4-((7-(2,6-dimethyl-4-(3-(methylsulfonyl)propoxy)phenyl)-2,3-dihydrobenzofuran-3-yl)oxy)phenyl)-3-hydroxyisothiazole 1-oxide], the EC50 was less than 300 nM. `COc1ccc(Oc2cccc3c2OCC3Oc2ccc(-c3cc(O)n[s+]3[O-])cc2)cn1` (single isomer, unassigned) [Example 152-a, 3-hydroxy-5-(4-((7-((6-methoxypyridin-3-yl)oxy)-2,3-dihydrobenzofuran-3-yl)oxy)phenyl)isothiazole 1-oxide] showed an EC50 of less than 300 nM. `Cc1nc(OCCC(C)(C)O)ccc1Oc1cccc2c1OCC2Oc1ccc(-c2cc(O)n[s+]2[O-])cc1` (single isomer, unassigned) [Example 153-a, 3-hydroxy-5-(4-((7-((6-(3-hydroxy-3-methylbutoxy)-2-methylpyridin-3-yl)oxy)-2,3-dihydrobenzofuran-3-yl)oxy)phenyl)isothiazole 1-oxide] showed an EC50 of less than 300 nM. Compound `Cc1nc(OCCC(C)(C)O)ccc1-c1cccc2c1OCC2Oc1ccc(-c2cc(O)n[s+]2[O-])cc1` (single isomer, unassigned) [Example 154-a, 3-hydroxy-5-(4-((7-(6-(3-hydroxy-3-methylbutoxy)-2-methylpyridin-3-yl)-2,3-dihydrobenzofuran-3-yl)oxy)phenyl)isothiazole 1-oxide] has an EC50 of less than 300 nM. `[O-][s+]1nc(O)cc1-c1ccc(OCc2ccc(Oc3ccccc3)cc2)cc1` (single isomer, unassigned) [Example 160, 3-hydroxy-5-(4-((4-phenoxybenzyl)oxy)phenyl)isothiazole 1-oxide] was tested, and the EC50 was less than 300 nM. In the case of `[O-][s+]1nc(O)cc1-c1ccc(OC2CCc3cc(Br)ccc32)cc1` (stereo not drawn) [Example 1, 5-(4-((5-bromo-2,3-dihydro-1H-inden-1-yl)oxy)phenyl)-3-hydroxyisothiazole 1-oxide], the EC50 is reported as less than 300 nM. Work on `Cc1cc(OCCCS(C)(=O)=O)cc(C)c1-c1cccc(CNc2ccc(-c3cc(O)n[s+]3[O-])cc2)c1` (stereo not drawn) [Example 2, 5-(4-(((2′,6′-dimethyl-4′-(3-(methylsulfonyl)propoxy)-[1,1′-biphenyl]-3-yl)methyl)amino)phenyl)-3-hydroxyisothiazole 1-oxide] yielded an EC50 of less than 300 nM. Work on `CCOc1ccc(F)cc1-c1cccc2c1CC[C@H]2Oc1ccc(-c2cc(O)n[s+]2[O-])cc1` (stereo partly drawn) [Example 4, 5-(4-(((1R)-4-(2-ethoxy-5-fluorophenyl)-2,3-dihydro-1H-inden-1-yl)oxy)phenyl)-3-hydroxyisothiazole 1-oxide] yielded an EC50 of less than 300 nM. `Cc1ccc(-c2cccc3c2CC[C@H]3Oc2ccc(-c3cc(O)n[s+]3[O-])cc2)cc1` (stereo partly drawn) [Example 5, 3-hydroxy-5-(4-(((1R)-4-(p-tolyl)-2,3-dihydro-1H-inden-1-yl)oxy)phenyl)isothiazole 1-oxide] gave an EC50 of less than 300 nM. For `[O-][s+]1nc(O)cc1-c1ccc(O[C@@H]2CCc3c(-c4ccc(Cl)cc4)cccc32)cc1` (stereo partly drawn) [Example 6, 5-(4-(((R)-4-(4-chlorophenyl)-2,3-dihydro-1H-inden-1-yl)oxy)phenyl)-3-hydroxyisothiazole 1-oxide], the EC50 was 300 to 3000 nM. Work on `CCOc1ccc(-c2cccc3c2CC[C@H]3Oc2ccc(-c3cc(O)n[s+]3[O-])cc2)cc1` (stereo partly drawn) [Example 7, 5-(4-(((R)-4-(4-ethoxyphenyl)-2,3-dihydro-1H-inden-1-yl)oxy)phenyl)-3-hydroxyisothiazole 1-oxide] yielded an EC50 of 300 to 3000 nM. In the case of `[O-][s+]1nc(O)cc1-c1ccc(O[C@@H]2CCc3c(-c4cccc(Cl)c4)cccc32)cc1` (stereo partly drawn) [Example 8, 5-(4-(((R)-4-(3-chlorophenyl)-2,3-dihydro-1H-inden-1-yl)oxy)phenyl)-3-hydroxyisothiazole 1-oxide], the EC50 is reported as less than 300 nM. Work on `CCc1ccccc1-c1cccc2c1CC[C@H]2Oc1ccc(-c2cc(O)n[s+]2[O-])cc1` (stereo partly drawn) [Example 9, 5-(4-(((R)-4-(2-ethylphenyl)-2,3-dihydro-1H-inden-1-yl)oxy)phenyl)-3-hydroxyisothiazole 1-oxide] yielded an EC50 of less than 300 nM. Compound `[O-][s+]1nc(O)cc1-c1ccc(O[C@@H]2CCc3c(-c4ccccc4Cl)cccc32)cc1` (stereo partly drawn) [Example 10, 5-(4-(((R)-4-(2-chlorophenyl)-2,3-dihydro-1H-inden-1-yl)oxy)phenyl)-3-hydroxyisothiazole 1-oxide] has an EC50 of less than 300 nM. `[O-][s+]1nc(O)cc1-c1ccc(O[C@@H]2CCc3c(-c4ccccc4F)cccc32)cc1` (stereo partly drawn) [Example 11, 5-(4-(((R)-4-(2-fluorophenyl)-2,3-dihydro-1H-inden-1-yl)oxy)phenyl)-3-hydroxyisothiazole 1-oxide] showed an EC50 of less than 300 nM. With `[O-][s+]1nc(O)cc1-c1ccc(O[C@@H]2CCc3c(-c4cc(F)cc(F)c4)cccc32)cc1` (stereo partly drawn) [Example 12, 5-(4-(((R)-4-(3,5-difluorophenyl)-2,3-dihydro-1H-inden-1-yl)oxy)phenyl)-3-hydroxyisothiazole 1-oxide] the EC50 was less than 300 nM. With `Cc1ccc(-c2cccc3c2CC[C@H]3Oc2ccc(-c3cc(O)n[s+]3[O-])cc2)cc1F` (stereo partly drawn) [Example 13, 5-(4-(((R)-4-(3-fluoro-4-methylphenyl)-2,3-dihydro-1H-inden-1-yl)oxy)phenyl)-3-hydroxyisothiazole 1-oxide] the EC50 was less than 300 nM. In the case of `COc1cc(Cl)cc(-c2cccc3c2CC[C@H]3Oc2ccc(-c3cc(O)n[s+]3[O-])cc2)c1` (stereo partly drawn) [Example 14, 5-(4-(((R)-4-(3-chloro-5-methoxyphenyl)-2,3-dihydro-1H-inden-1-yl)oxy)phenyl)-3-hydroxyisothiazole 1-oxide], the EC50 is reported as less than 300 nM.
